Reference: patent US12433892B2, “Compositions and methods of treatment for neurological disorders comprising depression” (Gliapharm SA, priority 2018, dated 2025)
Structures can show the parent of a compound that is named as a salt.

Tests used:
astrocytes [1] = assay: Intracellular glycogen quantification; format: cell-based, mouse; conditions: Prestwick hits; 10 uM, 3 h
Method: For glycogen dosage, a protein dosage was first performed in order to assess whether harvested astrocytes from primary cell cultures yielded enough and equivalent amounts of proteins comparing each replicate, and to ensure that the obtained differences in glycogen quantities were due to drug action and not to inner protein quantities.
Astrocytes used for these dosages were previously grown in 6-well plates for 17 days and stimulated with Vehicle (DMSO) or drug of interest (1 μM to 100 μM) for 180 min, at 37° C. 5% CO2/95% air in D5030 complete medium. Medium was removed and replaced with 600 μl of 30 mM Tris HCl, and stored at −20° C.
Proteins were dosed using the micro BCA Protein Assay kit (Thermo Scientific), as described in the manufacturer's instructions. Briefly, thawed cells were sonicated and 5 μl aliquots were placed in a transparent 96-well plate, to which we added 25 μl 30 mM Tris HCl, 70 μl H2O and 100 μl of a BCA mix (made as described in manufacturer's guidelines). After a 120 min-incubation at 37° C., absorbance was measured with Safire 2 spectrophotometer at a wavelength of 562 nm, and protein quantities were determined from a standard curve of Bovine Serum Albumin (BSA).
Glycogen was quantified using a 250 μl-aliquot of the same stimulated, thawed, and sonicated cells. After an incubation period of 30 min at 90° C. and 400 rpm, 28 μl of an acetic acid/sodium acetate (both from Sigma) 0.1M pH 4.6 buffer was added to each aliquot, which was then separated in two. Each split aliquot received whether 5 μl of amyloglucosidase (Roche) or 5 μl H2O, and all cell solutions were incubated for 120 min in a shaking 37° C.-waterbath. After a centrifugation at 16'000 G for 5 min, 20 μl of supernatant were placed 96-well plate, to which 150 μl of a mix containing 0.67 mM ATP (Roche), 0.67 mM NADP (Roche), 1.8% hexokinase/glucose-6-phosphate dehydrogenase (Roche) and 0.1M Tris Buffer-HCl/3.3 mM magnesium (Fluka)/pH 8.1 buffer was added. Fluorescence was measured with Safire 2 spectrophotometer (340 nm excitation/440 nm emission). Glycogen concentration was obtained by subtracting glucose value of samples with amyloglucosidase to samples without amyloglucosidase, and were expressed relative to the amount of proteins previously determined.
Levels of intracellular glycogen in astrocytes were measured at 3 h after stimulation with 20 hits from the Prestwick library (10 μM each), as shown in FIG. 2. n=6-10; Ctrl pos. is glutamate (0.5 mM). Statistical analysis consisted in ANOVA followed by Fisher LSD post-hoc test for pair-wise comparisons.
Statistical analysis consisted in ANOVA followed by Fisher LSD post-hoc test for pair-wise comparisons.

[2] = tested on: cerebral extracellular lactate; assay: In vivo pharmacodynamics: lactate biosensors in cortex; design: species or system mouse
Method: Extracellular levels of lactate were monitored in vivo using lactate biosensors (Pinnacle Technology), according to the manufacturer's instructions. Cannulae were surgically implanted in mice cerebral cerebral motor cortex areas M1/M2 (coordinates: +1.94 mm (to bregma), lateral −1.4 mm (to mideline), ventral −1.0 mm (to dura)) 5-7 days before administration of the compounds. Drugs were administered per os as previously described, and cerebral levels of extracellular lactate were dynamically recorded for 6 hours. Mice were administered vehicle alone first, followed 3 hours later by vehicle or drug (10 or 100 mg/kg). Area Under the Curve (AUC) quantifying the fluctuations of extracellular lactate concentrations for each of the compound tested was calculated using Graphad Prism and the ratio of AUC after drug over Vehicle administration was calculated. Groups of 8 male mice were used for each condition.
To measure biological effect of lead molecules in vivo in the brain, lactate levels were quantified after administration of the drug by using lactate biosensors implanted in the cortex of freely moving mice.

[3] = In vivo pharmacokinetics (PFC microdialysis and plasma); design: species or system mouse; conditions: after gavage with 100 mg/kg
Method: Mice were anesthetized using isoflurane (2% and 800 mL/min O2). Before surgery, Finadyne (1 mg/kg, s.c.) was administered for analgesia during surgery and the post-surgical recovery period. A mixture of bupivacaine and epinephrine was used for local anesthesia of the incision site of the periost of the skull.
The animals were placed in a stereotaxic frame (Kopf instruments, USA). MetaQuant microdialysis probes with a 3 mm exposed polyacrylonitrile membrane (MQ-PAN 3/3, Brainlink, the Netherlands) were implanted into the prefrontal cortex (coordinates for the tip of the probe: AP=+2.0 mm (to bregma), lateral=−0.7 mm (to midline), ventral=−3.3 mm (to dura), with the incisor bar set at 0.0 mm and an angle of 8°). All coordinates were based on “The mouse brain in stereotaxic coordinates” by Paxinos and Franklin (2004). The probes were attached to the skull with a stainless steel screw and dental cement (Fuji Plus Capsules, Henry Schein, the Netherlands).
In the same surgical procedure, a catheter was placed into the jugular vein to accommodate blood sampling. An indwelling cannula was inserted into the right jugular vein, and exteriorized through an incision on top of the skull. The end of the jugular vein catheter was fixed in position with dental acrylic cement and attached to the skull with two stainless steel screws.
Experiments were initiated one day after surgery. The MetaQuant microdialysis probes were connected with flexible PEEK tubing (Western Analytical Products Inc. USA; PK005-020) to a microperfusion pump (CMA Microdialysis) and perfused with aCSF+0.2% BSA at a flow rate of 0.12 μL/min. Ultrapurified water+0.2% BSA was used as the carrier flow at a flow rate of 0.80 μL/min. After a minimum of 1.5 hours of prestabilization, microdialysis samples were collected in 30 minute intervals. Samples were collected into polystyrene microvials (Microbiotech/se AB, Sweden; 4001029) using an automated fraction collector (UV 8301501, TSE, Univentor, Malta). After collection of three basal samples, at t=0 minutes, drug of interest was administered per os. Eight additional samples were collected after compound administration. All samples were stored at −80° C. until off-line analysis.
In parallel, blood samples (50 μL) were taken from the jugular vein through the cannula. These samples were collected at specified intervals into vials containing 5 μL heparin (500 IE/mL in saline). The samples were mixed by inverting the tubes and, subsequently, centrifuged at 4000 rpm (1500×g) for 10 min at 4° C. The supernatant was stored as plasma in 1.5 mL Eppendorf vials (Sarstedt, Germany) at −80° C. until off-line analysis.
At the end of the experiment, the animals were euthanized and terminal brain tissue was collected for visual histological verification of the probe positions.
PK was measured for GP-04, GP-05, GP-07, GP-R1 and GP-P1 in the PFC (prefrontal cortex) and plasma of wild type C56Bl/6 mice by CRO Brainsonline.

[4] = tested on: C57Bl/6 male and female mice; assay: In vivo chronic toxicity (28 days); conditions: 10 mg/kg per os once a day, 28 days
Method: During this period, clinical symptoms and weight were recorded.
Chronic toxicity was assessed.

primary astrocytes = assay: Intracellular glycogen quantification, Example 2; format: cell-based, mouse; conditions: 10 μM, 3 h (GP-0157: 0.1, 1, 10 μM)
Method: To assess for the effect of the compounds of the invention, those were tested in primary astrocytes, as described below. Secretion of lactate was measured directly in the extracellular medium, and indirectly through the acidification of extracellular medium using extracellular pH sensor SNARE-5F-(AND-6)-CAR (SNARF5). Glucose uptake was measured by quantification 2-deoxyglucose in the cell. Cell Cultures Primary cultures of cerebrocortical astrocytes were obtained from 1 to 2-day-old OF1 mouse pups (Charles River). Briefly, cortices were isolated and minced in small pieces under a dissecting microscope. The cells were incubated for 30 min at 37° C. in a solution containing 20 U/ml papain, 1 mM L-cysteine and 10 kU/ml DNase I. After dissociation, papain activity was stopped by the addition of fetal calf serum (FCS). Single-cell suspension was then obtained by mechanical dissociation, which consisted in cells trituration in a DMEM D7777 medium supplemented with 44 mm NaHCO3, 10 ml/L antibiotic/antimycotic solution and 10% FCS. The cells were seeded at an average density of ˜10'000 cells/cm2 on poly-D-lysine coated 96- or 12-well culture plates, depending on their use, and grown in DMEM D7777 medium supplemented with 44 mm NaHCO3, 10 ml/L antibiotic/antimycotic solution and 10% FCS at 37° C. in a humidified atmosphere containing 5% CO2/95% air. Culture medium was renewed twice a week. Cells were stimulated and harvested between DIV14 and DIV17, when confluence and cell growth were optimal. Extracellular Medium Acidification (SNARF5) Secretion of lactate was measured indirectly through the acidification of extracellular medium using extracellular pH sensor […] (SNARF5). After washing cells twice with stimulation medium (DMEM (D5030, Sigma), 1 mM NaHCO2, and 5 mM Glucose, pH 7.4) at 37° C., cells were stimulated with compounds at a final concentration ranging from 10 nM to 30 μM in 50 μl per well of stimulation medium supplemented with 10 μM of SNARF5 (Life Technologies Corporation). Each compound was tested in two different plates for duplicates. After 90 min stimulation, fluorescence was read at exc. (excitation) 480 nm/emm. (emission) 580 nm and at exc 480 nm/emm. 630 nm. The ratio of fluorescence between 630 nm and 580 emission values, which is proportional to extracellular pH, was calculated. In each plate, 8 wells were used for negative controls (DMSO 0.1%) and 8 wells were used for positive controls (CCCP 2 μM in DMSO). The extracellular medium acidification in primary mouse astrocytes treated with GP-A1 was quantified (FIG. 13). Extracellular medium acidification was measured over a period of 1.5 h and 3 h. […] Extracellular Lactate Quantification Secretion of L-lactate was measured in the extracellular medium of 96-well plated astrocytes after 90 min stimulation (at 37° C., in 5% CO2/95% air conditions) with Vehicle (DMSO), the compounds of the invention (100 nM to 100 μM) or positive control. […] Stimulation medium was composed of D5030 medium complemented with 5 mM D-glucose and 44 mM sodium bicarbonate, pH 7.2. To quantify lactate concentrations in the extracellular medium, 200 μl of a 0.2M Glycine-semicarbazide buffer (pH 10) containing 3 mM NAD and 14 U/ml LDH was added to each well of a 96-well plate containing 30 μl aliquots of extracellular medium. Samples were incubated at 37° C. for 1 h. Fluorescence intensity (340 nm excitation/450 nm emission), which represents the amount of NADH produced, was measured, and lactate concentration values were determined relative to a standard curve of L-lactate concentrations. The release of lactate from primary mouse astrocytes treated with GP-A1 was quantified (FIG. 5A and FIG. 14). Accumulation of lactate in the extracellular medium was measured over a period of 1.5 h. […] Intracellular Glycogen Quantification Astrocytes grown on 12-well plates were used for intracellular glycogen quantifications. […]

astrocytes [5] = assay: Intracellular glycogen quantification; format: cell-based, mouse; conditions: CDC54K hits; 10 uM, 3 h

SMILES	levels in the PFC [3]	mobilization of intracellular glycogen (primary astrocytes)	other results
N=C(N)N1CCc2ccccc2C1 [Debrisoquin sulfate]	at therapeutic range (100 nM to 1 uM) and sustained over several hours	–	Glycogen (statistical significance of glycogen degradation) (astrocytes [1]): **** (****p<0.0001); cerebral lactate (AUC ratio vs vehicle) ([2]; 10 mg/kg per os): Significant increase
C[N+]1(C)CCC(=C(c2ccccc2)c2ccccc2)CC1 [Diphemanil methylsulfate]	at therapeutic range (100 nM to 1 uM) and sustained over several hours	–	Glycogen (statistical significance of glycogen degradation) (astrocytes [1]): **** (****p<0.0001); chronic toxicity (toxic or safe) [4]: safe; cerebral lactate (AUC ratio vs vehicle) ([2]; 10 mg/kg per os): Significant increase
Cc1ccccc1NC(=O)C1CCCN(c2ncnc3oc(C)c(C)c23)C1 (centres unmarked) [F228-0422]	–	significantly enhance the mobilization of intracellular glycogen	–
CCc1nc(-c2csc(S(=O)(=O)NCc3ccc4c(c3)OCO4)c2)no1 [L287-0468]	–	significantly enhance the mobilization of intracellular glycogen	–
CCn1nccc1-c1csc(S(=O)(=O)Nc2ccc(Cl)cc2F)c1 [L924-1031]	–	significantly enhance the mobilization of intracellular glycogen	–
CC(=O)N1CCc2sc(S(=O)(=O)N3CCN(c4ccccc4C)CC3)cc2C1 [P025-0159]	need chemical improvement to reach their target at therapeutic dose in the brain	significantly enhance the mobilization of intracellular glycogen	cerebral lactate (AUC ratio vs vehicle) ([2]; 100 mg/kg per os): Significant increase
COc1ccc(Nc2nc(N3CCOCC3)c3ccccc3n2)cc1.Cl [T0508-5190]	–	significantly enhance the mobilization of intracellular glycogen	Glycogen (statistical significance of glycogen degradation) (astrocytes [5]): ** (**p<0.01)
c1ccc2c(c1)CCN(c1ncnc3sccc13)C2 [T0517-8250]	–	significantly enhance the mobilization of intracellular glycogen	–
N#Cc1ccc(C(=O)N2CCC(Nc3ncnc4c3CCC4)C2)cc1 (centres unmarked) [T636-2387]	–	significantly enhance the mobilization of intracellular glycogen	cerebral lactate (AUC ratio vs vehicle) ([2]; 100 mg/kg per os): Significant increase
COc1cc(C)c(Cl)cc1S(=O)(=O)NCc1ccncc1 [T5580243]	at therapeutic range (100 nM to 1 uM) and sustained over several hours	–	cerebral lactate (AUC ratio vs vehicle) ([2]; 100 mg/kg per os): Significant increase
O=C1CCCN1c1ccc(S(=O)(=O)Nc2cccc(/C=C/c3ccccn3)c2)cc1 [T5644989]	–	significantly enhance the mobilization of intracellular glycogen	–
COc1cccc(CNS(=O)(=O)c2ccc3c(c2)CCCN3C(C)=O)c1 [T5967389]	–	–	Glycogen (statistical significance of glycogen degradation) (astrocytes [5]): * (*p<0.05)
Cc1nc2ccc(NS(=O)(=O)c3cccc(F)c3)cc2s1 [T6937001]	–	significantly enhance the mobilization of intracellular glycogen	–
